Measured values as given in patent US20180298405A1, “METHODS AND COMPOSITIONS TO INCREASE HUMAN SOMATIC CELL NUCLEAR TRANSFER (SCNT) EFFICIENCY BY REMOVING HISTONE H3-LYSINE TRIMETHYLATION, AND DERIVATION OF HUMAN NT-ESC” (CHILDREN'S MEDICAL CENTER CORPORATION, priority 2015, published 2018).

Test system: reprogramming resistant regions (RRRs) / ZGA genes
Test: RNA-seq of late 8-cell human SCNT embryos with or without KDM4A mRNA injection (ZGA of RRRs, KDM4A-responsive genes)
Format: cell-based
Conditions: KDM4A SCNT 8-cell embryos
From the text: A sliding window (size 20 kb, step size 10 kb) was used to assess the genome-wide expression level of 4-cell and 8-cell human embryos. For each window, the expression level was quantified with normalized RPM (reads per millions of uniquely mapped reads). […] These activated regions were classed into three groups based on their expression differences in human SCNT and IVF 8-cell embryos.
The SCNT embryos used for ZGA analysis were generated using oocytes donated by a single healthy person (#64) and dermal fibroblast cells from an AMD patient (DFB-8). SCNT and IVF embryos were cultured up to late 8-cell stage, when the compaction of blastomeres is initiated, then they were treated briefly with acid Tyrode solution to remove zona pellucida. To prepare for the 8-cell SCNT embryo, oocytes from a single oocyte donor, and skin fibroblast cells from a single somatic nuclear donor were used. All the procedures are the same as described in the “Human SCNT procedure and KMD4A mRNA injection” section. Only embryos that reached the late 8-cell stage synchronically 74 hours post activation were collected and used for this experiment.
For preparation of the control IVF embryos, several donated early 8-cell stage IVF embryos were thawed and cultured for 5-7 hours to allow them to reach late 8-cell stage before being processed. After removal of the zona pellucida, the denuded embryos were washed 3 times in PBS, loaded into RNAse and DNAse free PCR tubes, spin downed, and snap frozen in liquid nitrogen. Then, they were kept at −80° C. until use. As controls, dermal fibroblast cells of somatic nuclear donors were also prepared. Those fibroblast cells were cultured in a 25 cm^2 flask in DMEM 10% FBS, and approximately 10,000 cells/donor were collected, snap frozen, and stored at −80° C. until use.
Five 8-cell embryos for each group were directly lysed and used for cDNA synthesis using SMART-Seq v4 Ultra Low Input RNA Kit (Clontech). For MEF donor, 10 ng total RNA was used for cDNA synthesis using SMART-Seq v4 Ultra Low Input RNA Kit. After amplification, the cDNA samples were fragmented using Covaris sonicator M220 to an average size of 150 bp (Covaris). Sequencing libraries were made with the fragmented DNA using NEBNext Ultra DNA Library Prep Kit for Illumina according to manufacturer's instruction (New England Biolabs) with different barcodes. For each RNA-seq analysis of hESCs, 1 μg total RNA was used for mRNA purification. Barcoded RNA-seq libraries were generated using NEBNext Ultra Directional RNA Library Prep Kit for Illumina (New England Biolabs). Single end 50 bp sequencing was performed on a HiSeq 2500 sequencer (Illumina). Sequencing reads were mapped to the human genome (hg19) with Tophat2. All programs were performed with default settings (unless otherwise specified). At least 22 million uniquely mapped reads were obtained for each sequencing library, and subsequently assembled into transcripts guided by the reference annotation (Refseq gene models) with Cufflinks v2.0.2. Expression level of each gene was quantified with normalized FPKM (fragments per kilobase of exon per million mapped fragments). Statistical analyses were performed with R (available at: “www.r-project.org/”). Independent 2 group Wilcoxon rank sum tests were used to compare distributions using the wilcox.test function in R. Pearson's r coefficient was calculated using the cor function with default parameters. The hierarchical clustering analysis of the global gene expression pattern in different samples was carried out using heatmap.2 function (gplots package) in R.

Substance: KDM4A mRNA: in vitro transcribed mRNA of full length human KDM4A/JHDM3A cDNA, an H3K9me3 demethylase (SEQ ID NO: 1)
- NOC4L Expression level (FPKM): 0.61 FPKM
- NOP58 Expression level (FPKM): 55.54 FPKM
- NUDT9 Expression level (FPKM): 1.35 FPKM
- PAGE5 Expression level (FPKM): 1.86 FPKM
- PDCD11 Expression level (FPKM): 1.88 FPKM
- PDE4DIP Expression level (FPKM): 4.04 FPKM
- PHOSPHO1 Expression level (FPKM): 0.23 FPKM
- PIK3R4 Expression level (FPKM): 1.31 FPKM
- PLBD1 Expression level (FPKM): 0.74 FPKM
- PLD2 Expression level (FPKM): 1 FPKM
- PLVAP Expression level (FPKM): 1.63 FPKM
- POLR3K Expression level (FPKM): 109.26 FPKM
- POTEM Expression level (FPKM): 1.96 FPKM
- PPM1N Expression level (FPKM): 0.89 FPKM
- PPP2CB Expression level (FPKM): 1.07 FPKM
- PRAMEF3 Expression level (FPKM): 1.48 FPKM
- PRAMEF4 Expression level (FPKM): 18.29 FPKM
- PRAMEF6 Expression level (FPKM): 14.29 FPKM
- PRAMEF10 Expression level (FPKM): 49.42 FPKM
- PRAMEF11 Expression level (FPKM): 18.18 FPKM
- PRAMEF17 Expression level (FPKM): 0.66 FPKM
- PRPF39 Expression level (FPKM): 3.48 FPKM
- PTPN22 Expression level (FPKM): 1.15 FPKM
- RAB9A Expression level (FPKM): 1.37 FPKM
- RASA2 Expression level (FPKM): 1 FPKM
- RFK Expression level (FPKM): 2.86 FPKM
- RNU11 Expression level (FPKM): 3.75 FPKM
- RP2 Expression level (FPKM): 1.31 FPKM
- RPF2 Expression level (FPKM): 102.42 FPKM
- RPS6KB2 Expression level (FPKM): 0.32 FPKM
- SAMD8 Expression level (FPKM): 4.34 FPKM
- SCO1 Expression level (FPKM): 1.99 FPKM
- SEPX1 Expression level (FPKM): 2.34 FPKM
- SERTAD1 Expression level (FPKM): 7.03 FPKM
- SFTPD Expression level (FPKM): 0.61 FPKM
- SGCG Expression level (FPKM): 1.03 FPKM
- SGPP1 Expression level (FPKM): 1.39 FPKM
- SHFM1 Expression level (FPKM): 21.11 FPKM
- SIAH1 Expression level (FPKM): 88.93 FPKM
- SNAPC1 Expression level (FPKM): 17.7 FPKM
- SNAR-C3 Expression level (FPKM): 98.14 FPKM
- SNAR-E Expression level (FPKM): 2468.68 FPKM
- SNHG9 Expression level (FPKM): 63.59 FPKM
- SNHG12 Expression level (FPKM): 7.02 FPKM
- SPINK7 Expression level (FPKM): 12.41 FPKM
- SRA1 Expression level (FPKM): 5.51 FPKM
- SSX3 Expression level (FPKM): 5.71 FPKM
- STAG3L2 Expression level (FPKM): 2.72 FPKM
- STAG3L4 Expression level (FPKM): 2.35 FPKM
- STAP2 Expression level (FPKM): 0.83 FPKM
- SUZ12P Expression level (FPKM): 1.31 FPKM
- TAC1 Expression level (FPKM): 5.72 FPKM
- TCEANC2 Expression level (FPKM): 2.9 FPKM
- TCN2 Expression level (FPKM): 0.69 FPKM
- TEN1 Expression level (FPKM): 3.43 FPKM
- THOC5 Expression level (FPKM): 5.02 FPKM
- TIMM10 Expression level (FPKM): 25.23 FPKM
- TMEM41B Expression level (FPKM): 19.19 FPKM
- TMEM92 Expression level (FPKM): 0.97 FPKM
- TMEM159 Expression level (FPKM): 8.54 FPKM
- TRIM39-RPP21 Expression level (FPKM): 1.26 FPKM
- TRIML2 Expression level (FPKM): 1.8 FPKM
- TSEN34 Expression level (FPKM): 1.75 FPKM
- TTC27 Expression level (FPKM): 0.56 FPKM
- TTC28-AS1 Expression level (FPKM): 7.79 FPKM
- UBTFL1 Expression level (FPKM): 120.09 FPKM
- UTP3 Expression level (FPKM): 2.98 FPKM
- UTP23 Expression level (FPKM): 3.29 FPKM
- UTS2 Expression level (FPKM): 1.14 FPKM
- VAMP1 Expression level (FPKM): 13.05 FPKM
- VCX2 Expression level (FPKM): 0.24 FPKM
- VCX Expression level (FPKM): 0.23 FPKM
- VPS54 Expression level (FPKM): 3.79 FPKM
- WDR77 Expression level (FPKM): 3.45 FPKM
- XAGE5 Expression level (FPKM): 0.11 FPKM
- ZCCHC10 Expression level (FPKM): 15.69 FPKM
- ZFYVE19 Expression level (FPKM): 4.05 FPKM
- ZNF92 Expression level (FPKM): 21.84 FPKM
- ZNF100 Expression level (FPKM): 3.76 FPKM
- ZNF174 Expression level (FPKM): 1.13 FPKM
- ZNF208 Expression level (FPKM): 1.74 FPKM
- ZNF254 Expression level (FPKM): 1.32 FPKM
- ZNF273 Expression level (FPKM): 4.43 FPKM
- ZNF280A Expression level (FPKM): 84.94 FPKM
- ZNF326 Expression level (FPKM): 2.8 FPKM
- ZNF345 Expression level (FPKM): 1.41 FPKM
- ZNF486 Expression level (FPKM): 2.77 FPKM
- ZNF487P Expression level (FPKM): 3.02 FPKM
- ZNF625-ZNF20 Expression level (FPKM): 1.95 FPKM
- ZNF625 Expression level (FPKM): 1 FPKM
- ZNF669 Expression level (FPKM): 8.14 FPKM
- ZNF675 Expression level (FPKM): 15.04 FPKM
- ZNF676 Expression level (FPKM): 4.61 FPKM
- ZNF679 Expression level (FPKM): 86.94 FPKM
- ZNF680 Expression level (FPKM): 5.58 FPKM
- ZNF684 Expression level (FPKM): 7.21 FPKM
- ZNF700 Expression level (FPKM): 1.86 FPKM
- ZNF724P Expression level (FPKM): 13.16 FPKM
- ZNF729 Expression level (FPKM): 0.94 FPKM
- ZNF735 Expression level (FPKM): 33.19 FPKM
- ZNF789 Expression level (FPKM): 5.2 FPKM
- ZNF791 Expression level (FPKM): 3.79 FPKM
- ZNF826P Expression level (FPKM): 2.07 FPKM
- ZNHIT6 Expression level (FPKM): 3.88 FPKM
